Test results as given in US6737383B1, “Herbicidal oxadiazolidines” (priority 1999, dated 2004).

Columns and labels:
cocklebur = test: Test B pre/postemergence cocklebur; format: in vivo, Xanthium strumarium; conditions: for Cocklebur plant response rating: scale of 0 to 10 where 0 is no effect and 10 is complete control
Method in brief: (§1)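 Test chemicals in a non-phytotoxic solvent mixture with surfactant were sprayed preemergence onto planted seeds and postemergence onto plants 2 to 18 cm tall (1- to 4-leaf stage). After twelve to sixteen days in a greenhouse, injury was visually rated against untreated controls from 0 (no effect) to 10 (complete control).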

bedstraw = test: Test B pre/postemergence bedstraw; format: in vivo, Galium aparine; conditions: for Bedstraw plant response rating: Rate 500 g/ha, scale of 0 to 10 where 0 is no effect and 10 is complete control
Method in brief: as §1

sugar beet = test: Test B pre/postemergence sugar beet; format: in vivo, Beta vulgaris; conditions: for Sugarbeets plant response rating: scale of 0 to 10 where 0 is no effect and 10 is complete control
Method in brief: as §1

rape = test: Test B pre/postemergence rape; format: in vivo, Brassica napus; conditions: for Rape plant response rating: scale of 0 to 10 where 0 is no effect and 10 is complete control
Method in brief: as §1

crabgrass = test: Test B pre/postemergence crabgrass; format: in vivo, Digitaria sanguinalis; conditions: for Crabgrass plant response rating: scale of 0 to 10 where 0 is no effect and 10 is complete control
Method in brief: as §1

soybean = test: Test B pre/postemergence soybean; format: in vivo, Glycine max; conditions: for Soybean plant response rating: scale of 0 to 10 where 0 is no effect and 10 is complete control
Method in brief: as §1

surinam grass = test: Test B pre/postemergence surinam grass; format: in vivo, Brachiaria decumbens; conditions: for B. signalgrass plant response rating: scale of 0 to 10 where 0 is no effect and 10 is complete control
Method in brief: as §1

morningglory = test: Test B pre/postemergence morningglory; format: in vivo, Ipomoea hederacea; conditions: for Morningglory plant response rating: scale of 0 to 10 where 0 is no effect and 10 is complete control
Method in brief: as §1

velvetleaf = test: Test B pre/postemergence velvetleaf; format: in vivo, Abutilon theophrasti; conditions: for Velvetleaf plant response rating: scale of 0 to 10 where 0 is no effect and 10 is complete control
Method in brief: as §1

duck salad = test: Test B flood test duck salad; format: in vivo, Heteranthera limosa; conditions: Rate 62 g/ha; flood test species, Pre-emergence; visual evaluation after twelve to sixteen days
Protocol: At the same time, these crop and weed species were also treated with postemergence applications of test chemicals formulated in the same manner. Plants ranged in height from 2 to 18 cm (1- to 4-leaf stage) for postemergence treatments. Plant species in the flood test consisted of rice (Oryza sativa), smallflower flatsedge (Cyperus difformis), duck salad (Heteranthera limosa) and bamyardgrass (Echinochloa crus-galli) grown to the 2-leaf stage for testing. Treated plants and controls were maintained in a greenhouse for twelve to sixteen days, after which all species were compared to controls and visually evaluated. Plant response ratings, summarized in Table B, are based on a scale of 0 to 10 where 0 is no effect and 10 is complete control. A dash (−) response means no test result.

[1] = Postemergence, Rate 125 g/ha, scale 0 to 10, 0 is no effect, 10 is complete control
[2] = Postemergence, Rate 250 g/ha, scale 0 to 10, 0 is no effect, 10 is complete control
[3] = Preemergence, Rate 62 g/ha, scale 0 to 10 (0 no effect, 10 complete control)

CCCCCCn1c(=O)on(C(=O)N(c2ccc(F)cc2)C(C)C)c1=O [Compound 389]
Plant response rating, Cocklebur (cocklebur; [1]): 0
Plant response rating, Cocklebur (cocklebur; [2]): 0
Cocklebur plant response rating (cocklebur; Postemergence, Rate 500 g/ha): 0
Plant response rating, Cocklebur (cocklebur; [3]): 0
Cocklebur plant response rating (0 to 10 scale) (cocklebur; Preemergence, Rate 125 g/ha): 0
Cocklebur plant response rating (cocklebur; Preemergence, Rate 250 g/ha): 0
Cocklebur plant response rating (cocklebur; Preemergence, Rate 500 g/ha): 0
Cocklebur plant response rating (cocklebur; Rate 62 g/ha, Postemergence): 0
Plant response rating, Bedstraw (bedstraw; [2]): 5
Bedstraw plant response rating (bedstraw; Postemergence): 7
Bedstraw plant response rating (bedstraw; Preemergence): 10
Plant response rating, Sugarbeets (sugar beet; [2]): 0
Sugarbeets plant response rating (sugar beet; Postemergence, Rate 500 g/ha): 0
Plant response rating, Sugarbeets (sugar beet; [3]): 0
Sugarbeets plant response rating (0 to 10 scale) (sugar beet; Preemergence, Rate 125 g/ha): 0
Sugarbeets plant response rating (sugar beet; Preemergence, Rate 250 g/ha): 0
Sugarbeets plant response rating (sugar beet; Preemergence, Rate 500 g/ha): 4
Sugarbeets plant response rating (sugar beet; Rate 62 g/ha, Postemergence): 0
Plant response rating, Rape (rape; [2]): 2
Rape plant response rating (rape; Postemergence, Rate 500 g/ha): 4
Plant response rating, Rape (rape; [3]): 0
Rape plant response rating (0 to 10 scale) (rape; Preemergence, Rate 125 g/ha): 0
Rape plant response rating (rape; Preemergence, Rate 250 g/ha): 0
Rape plant response rating (rape; Preemergence, Rate 500 g/ha): 8
Plant response rating, Crabgrass (crabgrass; [1]): 3
Plant response rating, Crabgrass (crabgrass; [2]): 4
Crabgrass plant response rating (crabgrass; Postemergence, Rate 500 g/ha): 7
Plant response rating, Crabgrass (crabgrass; [3]): 1
Crabgrass plant response rating (0 to 10 scale) (crabgrass; Preemergence, Rate 125 g/ha): 2
Crabgrass plant response rating (crabgrass; Preemergence, Rate 250 g/ha): 9
Crabgrass plant response rating (crabgrass; Preemergence, Rate 500 g/ha): 10
Crabgrass plant response rating (crabgrass; Rate 62 g/ha, Postemergence): 0
Plant response rating, Soybean (soybean; [2]): 2
Soybean plant response rating (soybean; Postemergence, Rate 500 g/ha): 3
Plant response rating, Soybean (soybean; [3]): 0
Soybean plant response rating (0 to 10 scale) (soybean; Preemergence, Rate 125 g/ha): 0
Soybean plant response rating (soybean; Preemergence, Rate 250 g/ha): 0
Soybean plant response rating (soybean; Preemergence, Rate 500 g/ha): 3
Soybean plant response rating (soybean; Rate 62 g/ha, Postemergence): 2
Plant response rating, B. signalgrass (surinam grass; [1]): 0
Plant response rating, B. signalgrass (surinam grass; [2]): 0
B. signalgrass plant response rating (surinam grass; Postemergence, Rate 500 g/ha): 0
Plant response rating, B. signalgrass (surinam grass; [3]): 0
B. signalgrass plant response rating (0 to 10 scale, 0 is no effect, 10 is complete control) (surinam grass; Preemergence, Rate 125 g/ha): 0
B. signalgrass plant response rating (surinam grass; Preemergence, Rate 250 g/ha): 0
B. signalgrass plant response rating (surinam grass; Preemergence, Rate 500 g/ha): 4
B. signalgrass plant response rating (surinam grass; Rate 62 g/ha, Postemergence): 0
Plant response rating, Morningglory (morningglory; [2]): 8
Morningglory plant response rating (morningglory; Postemergence, Rate 500 g/ha): 10
Plant response rating, Morningglory (morningglory; [3]): 0
Morningglory plant response rating (0 to 10 scale) (morningglory; Preemergence, Rate 125 g/ha): 0
Morningglory plant response rating (morningglory; Preemergence, Rate 250 g/ha): 0
Morningglory plant response rating (morningglory; Preemergence, Rate 500 g/ha): 1
Morningglory plant response rating (morningglory; Rate 62 g/ha, Postemergence): 2
Plant response rating, Velvetleaf (velvetleaf; [2]): 0
Velvetleaf plant response rating (velvetleaf; Postemergence, Rate 500 g/ha): 0
Plant response rating, Velvetleaf (velvetleaf; [3]): 0
Velvetleaf plant response rating (0 to 10 scale) (velvetleaf; Preemergence, Rate 125 g/ha): 0
Velvetleaf plant response rating (velvetleaf; Preemergence, Rate 250 g/ha): 0
Velvetleaf plant response rating (velvetleaf; Preemergence, Rate 500 g/ha): 2
Velvetleaf plant response rating (velvetleaf; Rate 62 g/ha, Postemergence): 0
Plant response rating, Ducksalad (0 to 10 scale, 0 is no effect, 10 is complete control) (duck salad): 0
